Measured values reported in ChEMBL document CHEMBL5370540, “Discovery of pyrimidine-5-carboxamide derivatives as novel salt-inducible kinases (SIKs) inhibitors for inflammatory bowel disease (IBD) treatment” (Eur J Med Chem, 2023).
Each block holds one molecule with its values, some of them ahead of it. The source made the active and inactive calls. No cut-off for these calls is given here.

Columns and labels:
[1] = Metabolic stability in human liver microsomes assessed as half life; type: ADME, Microsome
[2] = biological target: T1, Serine/threonine-protein kinase SIK3 (Homo sapiens, UniProt Q9Y2K2); experiment: Inhibition of SIK3 (unknown origin) assessed as residual activity at 0.1 uM relative to control
Target sequence in this assay (Q9Y2K2 whole entry, looked up): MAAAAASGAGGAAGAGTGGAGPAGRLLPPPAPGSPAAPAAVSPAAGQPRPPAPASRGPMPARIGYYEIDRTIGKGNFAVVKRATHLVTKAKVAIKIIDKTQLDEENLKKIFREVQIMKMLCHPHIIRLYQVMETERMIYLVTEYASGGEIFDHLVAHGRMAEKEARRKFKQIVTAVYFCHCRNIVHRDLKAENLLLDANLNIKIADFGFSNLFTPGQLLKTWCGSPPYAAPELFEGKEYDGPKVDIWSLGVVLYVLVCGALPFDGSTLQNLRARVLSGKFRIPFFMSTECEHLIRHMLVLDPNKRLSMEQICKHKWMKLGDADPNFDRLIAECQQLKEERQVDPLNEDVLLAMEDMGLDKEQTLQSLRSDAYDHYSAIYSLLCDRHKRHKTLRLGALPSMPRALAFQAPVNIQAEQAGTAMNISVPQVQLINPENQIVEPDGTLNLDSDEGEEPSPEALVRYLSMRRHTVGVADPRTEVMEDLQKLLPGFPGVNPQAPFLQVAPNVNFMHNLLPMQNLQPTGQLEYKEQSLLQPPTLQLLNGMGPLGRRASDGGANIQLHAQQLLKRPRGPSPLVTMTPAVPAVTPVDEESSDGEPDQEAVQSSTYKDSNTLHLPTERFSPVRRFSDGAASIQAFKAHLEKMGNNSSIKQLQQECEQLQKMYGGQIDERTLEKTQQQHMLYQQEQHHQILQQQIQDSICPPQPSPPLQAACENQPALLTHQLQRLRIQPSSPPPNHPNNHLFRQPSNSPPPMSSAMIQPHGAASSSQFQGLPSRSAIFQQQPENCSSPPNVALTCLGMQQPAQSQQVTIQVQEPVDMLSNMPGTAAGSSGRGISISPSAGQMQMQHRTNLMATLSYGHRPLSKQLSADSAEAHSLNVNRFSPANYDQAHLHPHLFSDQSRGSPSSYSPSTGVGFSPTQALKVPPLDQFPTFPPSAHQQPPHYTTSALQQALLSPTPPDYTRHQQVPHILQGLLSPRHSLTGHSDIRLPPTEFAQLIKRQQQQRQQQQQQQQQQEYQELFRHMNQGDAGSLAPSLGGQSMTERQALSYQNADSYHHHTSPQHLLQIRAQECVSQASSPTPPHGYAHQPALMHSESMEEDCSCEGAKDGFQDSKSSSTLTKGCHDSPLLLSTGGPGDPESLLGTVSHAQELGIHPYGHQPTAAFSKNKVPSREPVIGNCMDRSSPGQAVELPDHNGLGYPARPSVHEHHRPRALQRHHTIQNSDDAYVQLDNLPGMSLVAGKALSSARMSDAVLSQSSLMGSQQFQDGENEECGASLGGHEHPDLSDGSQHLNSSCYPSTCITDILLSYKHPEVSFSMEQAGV

[3] = biological target: T2, Serine/threonine-protein kinase SIK2 (Homo sapiens, UniProt Q9H0K1); experiment: Inhibition of SIK2 (unknown origin) assessed as residual activity at 0.1 uM relative to control
Target sequence in this assay (Q9H0K1 whole entry, looked up): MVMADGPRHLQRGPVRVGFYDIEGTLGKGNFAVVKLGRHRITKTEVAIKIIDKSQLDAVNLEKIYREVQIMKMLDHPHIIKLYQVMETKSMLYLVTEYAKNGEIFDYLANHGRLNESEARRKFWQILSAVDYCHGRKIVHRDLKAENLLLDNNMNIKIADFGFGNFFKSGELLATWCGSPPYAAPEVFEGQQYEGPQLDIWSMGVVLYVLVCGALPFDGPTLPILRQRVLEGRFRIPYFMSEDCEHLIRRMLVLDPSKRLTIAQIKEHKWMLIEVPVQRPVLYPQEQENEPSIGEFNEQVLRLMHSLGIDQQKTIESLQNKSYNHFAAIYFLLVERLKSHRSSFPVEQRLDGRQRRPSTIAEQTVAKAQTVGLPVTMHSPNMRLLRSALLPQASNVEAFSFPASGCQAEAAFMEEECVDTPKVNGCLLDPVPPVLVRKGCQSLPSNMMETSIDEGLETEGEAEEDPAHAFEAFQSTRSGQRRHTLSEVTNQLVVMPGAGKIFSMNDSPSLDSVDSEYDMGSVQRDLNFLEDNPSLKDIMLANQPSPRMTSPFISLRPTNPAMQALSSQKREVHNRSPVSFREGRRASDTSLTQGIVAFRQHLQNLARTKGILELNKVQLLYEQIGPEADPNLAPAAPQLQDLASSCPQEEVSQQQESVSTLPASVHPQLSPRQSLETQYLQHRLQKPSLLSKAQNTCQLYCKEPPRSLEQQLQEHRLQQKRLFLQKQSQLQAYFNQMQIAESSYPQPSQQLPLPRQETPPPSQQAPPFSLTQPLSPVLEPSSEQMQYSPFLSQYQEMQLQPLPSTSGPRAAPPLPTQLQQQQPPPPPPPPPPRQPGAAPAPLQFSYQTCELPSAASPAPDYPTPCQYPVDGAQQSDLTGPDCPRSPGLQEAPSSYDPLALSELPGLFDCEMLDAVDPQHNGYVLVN

[4] = Cmax in Sprague-Dawley rat at 5 mg/kg, po measured upto 24 hrs by LC/MS/MS analysis; type: ADME, organism-based; parameters: time < 24 hrs, dose 5 mg/kg, route po; conditions: in vivo
[5] = Selectivity ratio of IC50 for SIK3 (unknown origin) to IC50 for SIK2 (unknown origin)
[6] = biological target: T1, Serine/threonine-protein kinase SIK3; experiment: Inhibition of SIK3 (unknown origin)
Target sequence in this assay (Q9Y2K2 whole entry): as the sequence (Q9Y2K2 whole entry, looked up) above

[7] = Cmax in Sprague-Dawley rat at 5 mg/kg, iv measured upto 24 hrs by LC/MS/MS analysis; type: ADME, organism-based; parameters: dose 5 mg/kg, time < 24 hrs, route iv; conditions: in vivo
[8] = Selectivity ratio of IC50 for SIK1 (unknown origin) to IC50 for SIK2 (unknown origin)
[9] = Tmax in Sprague-Dawley rat at 5 mg/kg, iv measured upto 24 hrs by LC/MS/MS analysis; type: ADME, organism-based; conditions: in vivo
[10] = Clearance in Sprague-Dawley rat at 5 mg/kg, po measured upto 24 hrs by LC/MS/MS analysis; type: ADME, organism-based; conditions: in vivo
[11] = AUC (0 to t) in Sprague-Dawley rat at 5 mg/kg, po measured upto 24 hrs by LC/MS/MS analysis; type: ADME, organism-based; parameters: time < 24 hrs, dose 5 mg/kg, route po; conditions: in vivo
[12] = Half life in Sprague-Dawley rat at 5 mg/kg, po measured upto 24 hrs by LC/MS/MS analysis; type: ADME, organism-based; conditions: in vivo
[13] = biological target: T3, Serine/threonine-protein kinase SIK1 (Homo sapiens, UniProt P57059); experiment: Inhibition of SIK1 (unknown origin)
T3 sequence (P57059 whole entry): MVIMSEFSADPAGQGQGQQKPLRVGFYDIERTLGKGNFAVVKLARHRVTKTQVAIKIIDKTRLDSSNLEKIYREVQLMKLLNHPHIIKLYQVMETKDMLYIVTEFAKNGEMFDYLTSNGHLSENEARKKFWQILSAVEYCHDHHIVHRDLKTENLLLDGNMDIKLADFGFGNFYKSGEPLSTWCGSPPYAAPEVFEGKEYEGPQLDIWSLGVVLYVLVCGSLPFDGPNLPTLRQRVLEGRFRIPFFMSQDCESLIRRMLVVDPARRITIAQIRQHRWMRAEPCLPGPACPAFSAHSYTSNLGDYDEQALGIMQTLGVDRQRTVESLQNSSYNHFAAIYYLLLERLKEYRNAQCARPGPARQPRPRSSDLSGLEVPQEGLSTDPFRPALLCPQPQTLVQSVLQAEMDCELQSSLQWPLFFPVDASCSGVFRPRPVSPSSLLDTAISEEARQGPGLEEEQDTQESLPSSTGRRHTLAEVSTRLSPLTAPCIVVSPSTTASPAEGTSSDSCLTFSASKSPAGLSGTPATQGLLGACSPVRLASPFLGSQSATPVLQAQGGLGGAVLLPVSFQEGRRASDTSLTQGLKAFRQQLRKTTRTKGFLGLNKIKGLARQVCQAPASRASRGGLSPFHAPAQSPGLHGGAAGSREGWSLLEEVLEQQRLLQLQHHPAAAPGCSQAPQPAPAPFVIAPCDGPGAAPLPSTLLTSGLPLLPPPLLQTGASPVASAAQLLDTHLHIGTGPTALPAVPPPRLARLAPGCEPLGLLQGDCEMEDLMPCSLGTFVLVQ

[14] = biological target: T2, Serine/threonine-protein kinase SIK2; experiment: Inhibition of SIK2 (unknown origin)
Target sequence in this assay (Q9H0K1 whole entry): as the sequence (Q9H0K1 whole entry, looked up) above

[15] = AUC (0 to t) in Sprague-Dawley rat at 5 mg/kg, iv measured upto 24 hrs by LC/MS/MS analysis; type: ADME, organism-based; parameters: time < 24 hrs, dose 5 mg/kg, route iv; conditions: in vivo
[16] = Half life in Sprague-Dawley rat at 5 mg/kg, iv measured upto 24 hrs by LC/MS/MS analysis; type: ADME, organism-based; conditions: in vivo
[17] = Tmax in Sprague-Dawley rat at 5 mg/kg, po measured upto 24 hrs by LC/MS/MS analysis; type: ADME, organism-based; conditions: in vivo
[18] = Oral bioavailability in Sprague-Dawley rat at 5 mg/kg measured upto 24 hrs by LC/MS/MS analysis; type: ADME, organism-based; conditions: in vivo
[19] = Clearance in Sprague-Dawley rat at 5 mg/kg, iv measured upto 24 hrs by LC/MS/MS analysis; type: ADME, organism-based; conditions: in vivo
[20] = test system: BMDM; experiment: Anti-inflammatory activity against C57BL/6J mouse BMDM cells assessed as increase in IL-10 level at 500 nM preincubated for 1 hr followed by LPS stimulation measured after 2 to 8 hrs by ELISA method; type: functional, cell-based; conditions: time 3-9 hrs
[21] = test system: BMDM; experiment: Anti-inflammatory activity against C57BL/6J mouse BMDM cells assessed as decrease in IL-12 level upto 500 nM preincubated for 1 hr followed by LPS stimulation measured after 8 hrs by ELISA method; type: functional, cell-based; conditions: time 9.0 hrs
[22] = Protein binding in human plasma at 10 uM measured for 8 hrs by dialysis method; type: ADME, cell-free; conditions: read-out: PPB (converted)
[23] = test system: BMDM; experiment: Cytotoxicity against C57BL/6J mouse BMDM cells assessed as cell viability upto 500 nM preincubated for 1 hr followed by LPS stimulation measured after 2 to 4 hrs by CCK8 assay; type: toxicity, cell-based; conditions: 0.5 µM, time 3-5 hrs
[24] = test system: BMDM; experiment: Anti-inflammatory activity against C57BL/6J mouse BMDM cells assessed as decrease in IL-12 level at 500 nM preincubated for 1 hr followed by LPS stimulation measured after 4 to 8 hrs by ELISA method; type: functional, cell-based; conditions: time 5-9 hrs
[25] = test system: BMDM; experiment: Anti-inflammatory activity against C57BL/6J mouse BMDM cells assessed as decrease in IL-12 level at 500 nM preincubated for 1 hr followed by LPS stimulation measured after 8 hrs by ELISA method; type: functional, cell-based; conditions: time 9.0 hrs
[26] = Metabolic stability in mouse liver microsomes assessed as half life; type: ADME, Microsome
[27] = biological target: T3, Serine/threonine-protein kinase SIK1; experiment: Inhibition of SIK1 (unknown origin) assessed as residual activity at 0.1 uM relative to control
[28] = Protein binding in mouse plasma; type: ADME, cell-free; conditions: read-out: PPB

SMILES: CNc1nc(Nc2ccc(N3CCN(C)CC3)cc2)ncc1C(=O)Nc1c(C)cccc1C
- half-life [1]: 17.5 min

SMILES: Cc1cccc(F)c1NC(=O)c1cnc(Nc2ccc(N3CCN(C)CC3)c(F)c2)nc1NC1CC1
- Cmax [4]: 52.2 ng/mL
- Ratio IC50 [5]: 8.5
- IC50 [6]: 51 nM
- Cmax [7]: 1540 ng/mL
- Ratio IC50 [8]: 2.7
- half-life [1]: 73.7 min
- Tmax [9]: 6 min
- CL/F [10]: 315 mL/min/kg
- AUC(0-t) at 24 h [11]: 432 ng·h/mL
- half-life [12]: 234 min
- IC50 [13]: 16 nM
- IC50 [14]: 6 nM
- AUC(0-t) at 24 h [15]: 1850 ng·h/mL
- half-life [16]: 366 min
- Tmax [17]: 222 min
- bioavailability [18]: 23.4%
- clearance [19]: 51.7 mL/min/kg

SMILES: COc1ccc(N(C(=O)Nc2c(C)cccc2C)c2cc(Nc3ccc(N4CCN(C)CC4)cc3)ncn2)c(OC)c1
- Cmax [4]: 149 ng/mL
- Activity [20]: Active
- Cmax [7]: 1290 ng/mL
- Activity [21]: Active
- fraction unbound at 8 h, 10 µM [22]: < 0.01
- half-life [1]: 14.4 min
- Tmax [9]: 6 min
- CL/F [10]: 223 mL/min/kg
- AUC(0-t) at 24 h [11]: 522 ng·h/mL
- half-life [12]: 150 min
- Activity [23]: Non-Toxic
- AUC(0-t) at 24 h [15]: 1110 ng·h/mL
- Activity [24]: inactive
- half-life [16]: 210 min
- Activity [25]: Active
- Tmax [17]: 78 min
- bioavailability [18]: 47.2%
- half-life [26]: 11 min
- clearance [19]: 76.7 mL/min/kg

SMILES: Cc1cccc(C)c1NC(=O)c1cnc(Nc2ccc(N3CCN(C)CC3)c(F)c2)nc1NC1CCC1
- half-life [1]: 62.4 min

SMILES: Cc1cccc(C)c1NC(=O)c1cnc(Nc2ccc(N3CCN(C)CC3)c(Cl)c2)nc1NC1CCC1
- half-life [1]: 56.6 min

SMILES: COc1ccc(N2C(=O)N(c3c(C)cccc3Cl)Cc3cnc(Nc4ccc(N5CCN(C)CC5)cc4)nc32)nc1
- half-life [26]: 27 min

SMILES: Cc1cccc(C)c1NC(=O)c1cnc(Nc2ccc(N3CCN(C)CC3)cc2)nc1NC(C)C
- half-life [1]: 24.3 min

SMILES: COc1ccc(N2C(=O)N(c3c(C)cccc3Cl)Cc3cnc(Nc4ccc(C5CCN(C)CC5)cc4OC)nc32)nc1
- fraction unbound [28]: > 0.06
- half-life [26]: > 120 min

SMILES: COc1ccc(Nc2nc(Nc3ccc(N4CCN(C)CC4)cc3)ncc2C(=O)Nc2c(C)cccc2C)c(OC)c1
- half-life [1]: > 120 min

SMILES: Cc1cccc(C)c1NC(=O)c1cnc(Nc2ccc(CN3CCOCC3)cc2)nc1NC1CCC1
- half-life [1]: 6.5 min

SMILES: Cc1cccc(C)c1NC(=O)c1cnc(Nc2ccc(N3CCN(C)CC3)cc2F)nc1NC1CCC1
- half-life [1]: > 120 min

SMILES: Cc1cccc(C)c1NC(=O)c1cnc(Nc2ccc(N3CCN(C)CC3)c(F)c2)nc1NC1CC1
- half-life [1]: 60.3 min

The next lines start with the values.

- half-life [1]: 37.3 min
SMILES: Cc1cccc(C)c1NC(=O)c1cnc(Nc2ccc(N3CCN(C)CC3)cc2)nc1NC1CCCCC1

- Activity [2]: 9%
- half-life [1]: 69.3 min
- Activity [3]: 1%
SMILES: Cc1cccc(F)c1NC(=O)c1cnc(Nc2ccc(N3CCN(C)CC3)cc2)nc1NC1CCC1

- half-life [1]: 40.8 min
SMILES: Cc1cccc(C)c1NC(=O)c1cnc(Nc2ccc(N3CCN(C)CC3)cc2)nc1NC1CC1

- half-life [1]: 52.1 min
SMILES: COc1cc(Nc2ncc(C(=O)Nc3c(C)cccc3C)c(NC3CC3)n2)ccc1N1CCN(C)CC1

- half-life [1]: 48.6 min
SMILES: COc1cc(Nc2ncc(C(=O)Nc3c(C)cccc3C)c(NC3CCC3)n2)ccc1N1CCN(C)CC1

- Activity [27]: 124%
- Activity [2]: 100%
- half-life [1]: 45.6 min
- Activity [3]: 22%
SMILES: CN1CCN(c2ccc(Nc3ncc(C(=O)Nc4ccccc4F)c(NC4CCC4)n3)cc2)CC1

- Activity [2]: 93%
- half-life [1]: 31.9 min
- Activity [3]: 107%
SMILES: COc1cccc(C)c1NC(=O)c1cnc(Nc2ccc(N3CCN(C)CC3)cc2)nc1NC1CCC1

- Activity [2]: 66%
- half-life [1]: 21.5 min
- Activity [3]: 52%
SMILES: Cc1cccc(Br)c1NC(=O)c1cnc(Nc2ccc(N3CCN(C)CC3)cc2)nc1NC1CCC1

- half-life [1]: 32.4 min
SMILES: Cc1cccc(C)c1NC(=O)c1cnc(Nc2ccc(N3CCN(C)CC3)cc2)nc1NC1CCCC1

- Activity [27]: 31%
- Activity [2]: 68%
- half-life [1]: 43.3 min
- Activity [3]: 20%
SMILES: Cc1cccc(Cl)c1NC(=O)c1cnc(Nc2ccc(N3CCN(C)CC3)cc2)nc1NC1CCC1

- half-life [1]: 44.7 min
SMILES: Cc1cccc(C)c1NC(=O)c1cnc(Nc2ccc(N3CCN(C)CC3)cc2)nc1NC1CCC1

- half-life [1]: 33 min
SMILES: Cc1cccc(C)c1NC(=O)c1cnc(Nc2ccc(N3CCNCC3)cc2)nc1NC1CCC1

- Activity [27]: 12%
- Activity [2]: 93%
- half-life [1]: 49.5 min
- Activity [3]: 10%
SMILES: CN1CCN(c2ccc(Nc3ncc(C(=O)Nc4c(F)cccc4F)c(NC4CCC4)n3)cc2)CC1

- half-life [1]: 44.1 min
SMILES: COc1cc(N2CCN(C)CC2)ccc1Nc1ncc(C(=O)Nc2c(C)cccc2C)c(NC2CCC2)n1
